Measured values from ChEMBL document CHEMBL4477261, “Design, synthesis and evaluation of the multidrug resistance-reversing activity of pyridine acid esters of podophyllotoxin in human leukemia cells” (Bioorg Med Chem Lett, 2016).
Activity calls are given as the source filed them. No cut-off for these calls is given here.

Tests used:
K562 [1] = experiment: Resistance factor, ratio of IC50 for human K562/ADR cells to IC50 for human K562 cells; assay type: functional
K562/Adr [2] = experiment: Antiproliferative activity against human K562/ADR cells after 72 hrs by CCK8 assay; assay type: functional, cell-based
K562 [3] = experiment: Antiproliferative activity against human K562 cells after 72 hrs by CCK8 assay; assay type: functional, cell-based; conditions: K562, 72 h
[4] = target: T1, Mitogen-activated protein kinase; ERK1/ERK2 (Homo sapiens) (UniProt P27361+P28482); experiment: Activation of ERK1/2 signalling in human K562/ADR cells assessed as suppression of CyclinB1 protein expression at 0.05 uM after 48 hrs by Western blot analysis relative to control; assay type: cell-based
K562/Adr [5] = experiment: Induction of apoptosis in human K562/ADR cells assessed as necrotic cells at 0.05 uM after 48 hrs by Annexin V-APC/7-AAD staining based flow cytometry (reference value: 2.47%); assay type: functional
K562/Adr [6] = experiment: Induction of apoptosis in human K562/ADR cells assessed as nuclear fragmentation at 0.05 uM after 48 hrs by Hoechst 33342 staining based fluorescent microscopic analysis; assay type: functional, cell-based
K562/Adr [7] = experiment: Induction of apoptosis in human K562/ADR cells assessed as late apoptotic cells at 0.05 uM after 48 hrs by Annexin V-APC/7-AAD staining based flow cytometry (reference value: 3.89%); assay type: functional
[8] = target: T1, Mitogen-activated protein kinase; ERK1/ERK2 (Homo sapiens); experiment: Activation of ERK1/2 signalling in human K562/ADR cells assessed as increase in cleaved caspase-9 expression at 0.05 uM after 48 hrs by Western blot analysis relative to control; assay type: cell-based
[9] = target: T1, Mitogen-activated protein kinase; ERK1/ERK2 (Homo sapiens); experiment: Activation of ERK1/2 signalling in human K562/ADR cells assessed as increase in cleaved caspase-3 expression at 0.05 uM after 48 hrs by Western blot analysis relative to control; assay type: cell-based
[10] = target: T1, Mitogen-activated protein kinase; ERK1/ERK2 (Homo sapiens); experiment: Induction of ERK1/2 phosphorylation in human K562/ADR cells at 0.05 uM after 48 hrs by Western blot analysis relative to control; assay type: cell-based
K562/Adr [11] = experiment: Cell cycle arrest in human K562/ADR cells assessed as accumulation in S phase at 0.05 uM after 48 hrs by propidium iodide staining based flow cytometry; assay type: functional
K562/Adr [12] = experiment: Effect on total ERK1/2 protein expression level in human K562/ADR cells at 0.05 uM after 48 hrs by Western blot analysis relative to control; assay type: ADME, cell-based
K562/Adr [13] = experiment: Induction of apoptosis in human K562/ADR cells assessed as chromatin condensation at 0.05 uM after 48 hrs by Hoechst 33342 staining based fluorescent microscopic analysis; assay type: functional, cell-based
K562/Adr [14] = experiment: Induction of apoptosis in human K562/ADR cells assessed as live cells at 0.05 uM after 48 hrs by Annexin V-APC/7-AAD staining based flow cytometry (reference value: 91.65%); assay type: functional
K562/Adr [15] = experiment: Induction of apoptosis in human K562/ADR cells assessed as early apoptotic cells at 0.05 uM after 48 hrs by Annexin V-APC/7-AAD staining based flow cytometry (reference value: 1.99%); assay type: functional
[16] = target: T1, Mitogen-activated protein kinase; ERK1/ERK2 (Homo sapiens); experiment: Activation of ERK1/2 signalling in human K562/ADR cells assessed as increase in cleaved caspase-8 expression at 0.05 uM after 48 hrs by Western blot analysis relative to control; assay type: cell-based
[17] = target: T1, Mitogen-activated protein kinase; ERK1/ERK2 (Homo sapiens); experiment: Activation of ERK1/2 signalling in human K562/ADR cells assessed as suppression of P-gp expression at 0.05 uM after 48 hrs by Western blot analysis relative to control; assay type: cell-based
[18] = target: T1, Mitogen-activated protein kinase; ERK1/ERK2 (Homo sapiens); experiment: Activation of ERK1/2 signalling in human K562/ADR cells assessed as suppression of CDK1 protein expression at 0.05 uM after 48 hrs by Western blot analysis relative to control; assay type: cell-based

T1 sequence (P27361 whole entry, looked up): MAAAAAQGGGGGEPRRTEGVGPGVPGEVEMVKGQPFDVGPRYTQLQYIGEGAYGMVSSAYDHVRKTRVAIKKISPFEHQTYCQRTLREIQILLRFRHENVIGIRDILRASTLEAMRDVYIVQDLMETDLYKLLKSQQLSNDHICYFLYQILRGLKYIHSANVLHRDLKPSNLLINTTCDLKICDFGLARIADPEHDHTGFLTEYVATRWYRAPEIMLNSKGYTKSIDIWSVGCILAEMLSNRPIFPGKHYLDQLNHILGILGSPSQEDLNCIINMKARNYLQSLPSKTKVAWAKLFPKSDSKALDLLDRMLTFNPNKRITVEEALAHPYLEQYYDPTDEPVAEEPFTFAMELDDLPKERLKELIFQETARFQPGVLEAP
T1 sequence (P28482 whole entry, looked up): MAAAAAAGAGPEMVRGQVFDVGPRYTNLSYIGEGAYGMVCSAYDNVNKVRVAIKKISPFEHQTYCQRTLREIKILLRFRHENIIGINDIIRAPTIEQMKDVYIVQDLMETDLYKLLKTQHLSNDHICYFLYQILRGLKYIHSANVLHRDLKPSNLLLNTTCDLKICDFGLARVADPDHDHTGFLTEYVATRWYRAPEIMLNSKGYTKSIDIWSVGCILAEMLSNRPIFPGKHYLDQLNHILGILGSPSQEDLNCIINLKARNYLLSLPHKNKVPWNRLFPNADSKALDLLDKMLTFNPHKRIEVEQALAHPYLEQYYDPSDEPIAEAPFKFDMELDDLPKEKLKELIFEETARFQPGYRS

| SMILES | Ratio IC50 (K562 [1]) | IC50 (K562/Adr [2]) [nM] | IC50 (K562 [3]) [nM] | further results |
| --- | --- | --- | --- | --- |
| COc1ccc(C(=O)O[C@H]2c3cc4c(cc3[C@@H](c3cc(OC)c(OC)c(OC)c3)[C@H]3C(=O)OC[C@@H]32)OCO4)cn1 | 2.12 | 123 | 58 |  |
| COc1cc([C@@H]2c3cc4c(cc3[C@H](OC(=O)c3ccnc(Cl)c3)[C@H]3COC(=O)[C@H]23)OCO4)cc(OC)c1OC | 2.85 | 57 | 20 |  |
| COc1cc([C@@H]2c3cc4c(cc3[C@H](OC(=O)c3cc(Cl)ccn3)[C@H]3COC(=O)[C@H]23)OCO4)cc(OC)c1OC | 3.25 | 52 | 16 |  |
| COc1cc([C@@H]2c3cc4c(cc3[C@H](O)[C@H]3COC(=O)[C@H]23)OCO4)cc(OC)c1OC [PODOFILOX] | 4.166 | 25 |  | fold change (FC) [4]: 0.02; Activity (K562/Adr [5]): 7.73%; Activity (K562/Adr [6]): Active; Activity (K562/Adr [7]): 43.5%; fold change (FC) [8]: 0.74; fold change (FC) [9]: 0.76; fold change (FC) [10]: 0.63; Activity (K562/Adr [11]): Active; fold change (FC) (K562/Adr [12]): 0.88; Activity (K562/Adr [13]): Active; Activity (K562/Adr [14]): 40.83%; Activity (K562/Adr [15]): 7.94%; fold change (FC) [16]: 0.7; fold change (FC) [17]: 0.03; fold change (FC) [18]: 0.4 |
| COc1cc([C@@H]2c3cc4c(cc3[C@H](OC(=O)c3ccc(Br)nc3)[C@H]3COC(=O)[C@H]23)OCO4)cc(OC)c1OC | 1.347 | 345 | 256 |  |
| COc1cc([C@@H]2c3cc4c(cc3[C@H](OC(=O)c3cccnc3)[C@H]3COC(=O)[C@H]23)OCO4)cc(OC)c1OC [4-O-PODOPHYLLOTOXINYL-NICOTINATE] | 4.151 | 137 | 33 |  |
